The values below come from the NIST ThermoML archive (doi:10.1016/j.tca.2007.02.005).

The structures appear in SMILES notation. ± gives the expanded uncertainty stated by the source.

For data set [1] the following is noted: Crystal; DTA.
The nature of data set [2]: Molar enthalpy of transition or fusion. To be noted: Crystal; DSC.

In the case of `CCn1cc[n+](C)c1.F[P-](F)(F)(F)(F)F` [1-ethyl-3-methylimidazolium hexafluorophosphate], the Normal melting temperature in data set [1] is 60.90 ± 1.2 °C. Also, the “Molar enthalpy of transition or fusion” value in data set [2] is 4.3 ± 0.105 kcal/mol.
In the same order, the values of `c1ccc(-c2nc(-c3ccccc3)c(-c3ccccc3)[nH]2)cc1` [2,4,5-triphenyl-1H-imidazole] are 274.60 ± 2.1 °C and 8.92 ± 0.194 kcal/mol.
As to `c1ccc(-c2ncc[nH]2)cc1` [2-phenyl-1H-imidazole], in data set [1], the Normal melting temperature came out at 146.80 ± 2.1 °C. The “Molar enthalpy of transition or fusion” value in data set [2] worked out at 4.26 ± 0.108 kcal/mol.
For `c1ccc(-c2nc[nH]c2-c2ccccc2)cc1` [4,5-diphenylimidazole] the same measures were 231.80 ± 2.1 °C and 7.73 ± 0.17 kcal/mol.
